Values after ≈ are worked out from the molar mass of the structure shown. Active and inactive are the calls of the source. Unless noted, the calls are words filed in the database; no cut-off is given here. A value given as a limit tells only on which side of the number the result lay.

The subject of the first data set is Sporobolomyces salmonicolor. The experiment in a line: Antimicrobial activity against Sporobolomyces salmonicolor SBUG 549. The class given is functional, organism-based.
Conditions: not given
For the molecule `COc1ccc(-c2nc(C(=O)OCc3ccccc3)co2)cc1`, the result was inactive.

Turning to `O=C(OCc1ccccc1)c1coc(-c2ccccc2OCc2ccccc2)n1`, the result was inactive.

In a further data set the test system is Mycolicibacterium vaccae. Briefly: Antimycobacterial activity against Mycobacterium vaccae 10670. The class given is functional, organism-based.
Conditions: not given
As to `COc1ccc(-c2nc(C(=O)OCc3ccccc3)co2)cc1`, the outcome was inactive.

Regarding `O=C(OCc1ccccc1)c1coc(-c2ccccc2OCc2ccccc2)n1`, the outcome was inactive.

For a further data set, the system named is Colletotrichum. Briefly: Antifungal activity against Glomerella. The class given is functional, organism-based.
Conditions: not given
`COc1ccc(-c2nc(C(=O)OCc3ccccc3)co2)cc1`: the result was inactive.

In the case of `O=C(OCc1ccccc1)c1coc(-c2ccccc2OCc2ccccc2)n1`, the outcome was inactive.

Another data set concerns Micrococcus luteus. Briefly: Antibacterial activity against Micrococcus luteus ATCC 10240. The format is functional, organism-based.
Conditions: not given
As for `COc1ccc(-c2nc(C(=O)OCc3ccccc3)co2)cc1`, the result was inactive.

As to `O=C(OCc1ccccc1)c1coc(-c2ccccc2OCc2ccccc2)n1`, the result was inactive.

In another data set the test system is Mycobacterium avium. The experiment in a line: Antimycobacterial activity against Mycobacterium avium MAC 109. The format is functional, organism-based.
Conditions: not given
Turning to `COc1ccc(-c2nc(C(=O)OCc3ccccc3)co2)cc1`, the outcome was inactive.

As to `O=C(OCc1ccccc1)c1coc(-c2ccccc2OCc2ccccc2)n1`, the outcome was inactive.

Another data set concerns Candida albicans. The experiment in a line: Antifungal activity against Candida albicans.
Conditions: not given
The format is functional, organism-based.
Take `COc1ccc(-c2nc(C(=O)OCc3ccccc3)co2)cc1`: the result was inactive.

Consider `O=C(OCc1ccccc1)c1coc(-c2ccccc2OCc2ccccc2)n1`, for which the result was inactive.

The subject of another data set is Mus musculus. Briefly: Toxicity in mouse assessed as behavioral change at 100 mg/kg, po qd for 5 days followed by 2 days rest and 200 mg/kg, po qd for 5 days. The class given is organism-based. The following applies: in vivo.
Turning to `COc1ccc(-c2nc(C(=O)OCc3ccccc3)co2)cc1`, the Activity entry is “Non-toxic”.

For the molecule `O=C(OCc1ccccc1)c1coc(-c2ccccc2OCc2ccccc2)n1`, the Activity result is listed as “Non-toxic”.

Another data set relates to Mycolicibacterium aurum. The experiment in a line: Antimycobacterial activity against Mycobacterium aurum SB 66. The format is functional, organism-based.
Conditions: not given
Turning to `COc1ccc(-c2nc(C(=O)OCc3ccccc3)co2)cc1`, the outcome was inactive.

With `O=C(OCc1ccccc1)c1coc(-c2ccccc2OCc2ccccc2)n1`, the outcome was inactive.

For another data set, the system named is Mus musculus. Briefly: Toxicity in mouse assessed as change in body weight at 100 mg/kg, po qd for 5 days followed by 2 days rest and 200 mg/kg, po qd for 5 days. The class given is organism-based. The following applies: in vivo.
Take `COc1ccc(-c2nc(C(=O)OCc3ccccc3)co2)cc1`: the Activity entry is recorded as “Non-toxic”.

Regarding `O=C(OCc1ccccc1)c1coc(-c2ccccc2OCc2ccccc2)n1`, the Activity entry is listed as “Non-toxic”.

A further data set deals with Mus musculus. The experiment in a line: Toxicity in mouse assessed as change in gross appearance at 100 mg/kg, po qd for 5 days followed by 2 days rest and 200 mg/kg, po qd for 5 days. The class given is organism-based. Conditions: in vivo.
Turning to `COc1ccc(-c2nc(C(=O)OCc3ccccc3)co2)cc1`, the Activity result is listed as “Non-toxic”.

For `O=C(OCc1ccccc1)c1coc(-c2ccccc2OCc2ccccc2)n1`, the Activity entry is recorded as “Non-toxic”.

In the next data set the test system is Escherichia coli. The experiment in a line: Antibacterial activity against Escherichia coli SG 458. The class given is functional, organism-based.
Conditions: not given
Regarding `COc1ccc(-c2nc(C(=O)OCc3ccccc3)co2)cc1`, the outcome was inactive.

In the case of `O=C(OCc1ccccc1)c1coc(-c2ccccc2OCc2ccccc2)n1`, the result was inactive.

Another data set concerns Mycobacterium avium. Briefly: Antimycobacterial activity against Mycobacterium avium MAC 116. The format is functional, organism-based.
Conditions: not given
As to `COc1ccc(-c2nc(C(=O)OCc3ccccc3)co2)cc1`, the outcome was inactive.

For the molecule `O=C(OCc1ccccc1)c1coc(-c2ccccc2OCc2ccccc2)n1`, the result was inactive.

A further data set relates to Bacillus subtilis. Briefly: Antibacterial activity against Bacillus subtilis ATCC 6633.
Conditions: not given
The class given is functional, organism-based.
For `COc1ccc(-c2nc(C(=O)OCc3ccccc3)co2)cc1`, the outcome was inactive.

For `O=C(OCc1ccccc1)c1coc(-c2ccccc2OCc2ccccc2)n1`, the outcome was inactive.

Another data set concerns Mycolicibacterium aurum. The experiment in a line: Antimycobacterial activity against Mycobacterium aurum DSM 43536. The format is functional, organism-based.
Conditions: not given
As for `COc1ccc(-c2nc(C(=O)OCc3ccccc3)co2)cc1`, the result was inactive.

Take `O=C(OCc1ccccc1)c1coc(-c2ccccc2OCc2ccccc2)n1`: the outcome was inactive.

The next data set deals with Mycobacterium tuberculosis. The experiment in a line: Antimycobacterial activity against Mycobacterium tuberculosis H37Rv ATCC 27294 in GAS medium after 1 week by microplate alamar blue assay. The format is functional. Conditions: H37Rv ATCC 27294, 168 h. A general note: The colour change of resazurin is a common sign of viable cells or microbes.
Broadly, the MIC is the lowest concentration found to suppress growth. As for `Cc1oc(-c2ccccc2)nc1C(=O)OCc1ccccc1`, the MIC was found to be 3.92 µM (≈ 1.15 µg/mL).

Consider `CCOc1ccc(-c2nc(C(=O)OCc3ccccc3)co2)cc1`, for which inhibition of growth (MIC) required 15.5 µM (≈ 5.01 µg/mL).

As for `O=C(OCc1ccccc1)c1coc(-c2cncc(Br)c2)n1`, the MIC is 2.37 µM (≈ 0.851 µg/mL).

`COc1ccc(-c2nc(C(=O)OCc3ccccc3)co2)cc1` showed an MIC of 1.72 µM (≈ 0.532 µg/mL).

`O=C(OCc1ccccc1)c1coc(-c2ccccc2OCc2ccccc2)n1` gave an MIC of 62.6 µM (≈ 24.1 µg/mL).

The next data set relates to Liver microsomes. The experiment in a line: Metabolic stability in Sprague-Dawley rat microsomes assessed as compound remaining after 15 mins by HPLC analysis. The format is ADME, Microsome. Conditions: 0.25 h.
As to `COc1ccc(-c2nc(C(=O)OCc3ccccc3)co2)cc1`, the Stability is 14%.

Take `O=C(OCc1ccccc1)c1coc(-c2ccccc2OCc2ccccc2)n1`: the Stability came to 13%.

Test system in the next data set: not listed separately
Briefly: Chemical stability in simulated gastric fluid assessed as compound remaining after 2 hrs by HPLC analysis. The class given is physicochemical. The following applies: simulated gi fluid.
For the molecule `COc1ccc(-c2nc(C(=O)OCc3ccccc3)co2)cc1`, the Stability is on record as 0.4%.

Consider `O=C(OCc1ccccc1)c1coc(-c2ccccc2OCc2ccccc2)n1`, for which the Stability is listed as 4.2%.

The subject of a further data set is Mycobacterium tuberculosis. The experiment in a line: Antimycobacterial activity against Mycobacterium tuberculosis H37Rv ATCC 27294 incubated 10 days under anaerobic condition measured after 24 hrs recovery in air by luciferase based low oxygen recovery assay. The format is functional.
Conditions: not given
As for `Cc1oc(-c2ccccc2)nc1C(=O)OCc1ccccc1`, the minimal inhibitory concentration (MIC) is above 128 µM.

Take `CCOc1ccc(-c2nc(C(=O)OCc3ccccc3)co2)cc1`: the minimum inhibitory concentration (MIC) was 29.7 µM (≈ 9.6 µg/mL).

Turning to `O=C(OCc1ccccc1)c1coc(-c2cncc(Br)c2)n1`, the MIC was above 128 µM.

The subject of another data set is Mycolicibacterium fortuitum. The experiment in a line: Antimycobacterial activity against Mycobacterium fortuitum B by agar diffusion assay. The format is functional, organism-based.
Conditions: not given
As for `COc1ccc(-c2nc(C(=O)OCc3ccccc3)co2)cc1`, the outcome was Active.

Turning to `O=C(OCc1ccccc1)c1coc(-c2ccccc2OCc2ccccc2)n1`, the outcome was Active.

A further data set deals with Staphylococcus aureus. The experiment in a line: Antibacterial activity against Staphylococcus aureus SG 511. The format is functional, organism-based.
Conditions: not given
On to `COc1ccc(-c2nc(C(=O)OCc3ccccc3)co2)cc1`, for which the outcome was inactive.

In the case of `O=C(OCc1ccccc1)c1coc(-c2ccccc2OCc2ccccc2)n1`, the result was inactive.

A further data set has as its system Mycobacterium tuberculosis. Briefly: Antimycobacterial activity against Mycobacterium tuberculosis H37Rv ATCC 27294 in GAST medium after 1 week by microplate alamar blue assay. The class given is functional. The following applies: H37Rv ATCC 27294, 168 h.
Regarding `Cc1oc(-c2ccccc2)nc1C(=O)OCc1ccccc1`, the MIC turned out to be 15.2 µM (≈ 4.46 µg/mL).

`CCOc1ccc(-c2nc(C(=O)OCc3ccccc3)co2)cc1` gave an MIC of 1.97 µM (≈ 0.637 µg/mL).

`O=C(OCc1ccccc1)c1coc(-c2cncc(Br)c2)n1` yielded an MIC of 2.24 µM (≈ 0.805 µg/mL).

For `COc1ccc(-c2nc(C(=O)OCc3ccccc3)co2)cc1`, the lowest concentration to inhibit growth (MIC) was 1.8 µM (≈ 0.557 µg/mL).

Take `O=C(OCc1ccccc1)c1coc(-c2ccccc2OCc2ccccc2)n1`: inhibition of growth (MIC) required 10.3 µM (≈ 3.97 µg/mL).

The next data set concerns Vero. The experiment in a line: Cytotoxicity against african green monkey Vero cells by colorimetric assay. The format is cell-based. Conditions: Chlorocebus sabaeus.
The IC50 is the concentration needed to halve the response being measured. Take `Cc1oc(-c2ccccc2)nc1C(=O)OCc1ccccc1`: half-maximal inhibition (IC50) required 35 µM.

`CCOc1ccc(-c2nc(C(=O)OCc3ccccc3)co2)cc1` came in with an IC50 above 128 µM.

As to `O=C(OCc1ccccc1)c1coc(-c2cncc(Br)c2)n1`, the IC50 is above 128 µM.

Take `COc1ccc(-c2nc(C(=O)OCc3ccccc3)co2)cc1`: the IC50 is above 128 µM.

Regarding `O=C(OCc1ccccc1)c1coc(-c2ccccc2OCc2ccccc2)n1`, the IC50 was above 128 µM.

A further data set has as its system Mycobacterium avium. Briefly: Antimycobacterial activity against Mycobacterium avium MAC 100. The format is functional, organism-based.
Conditions: not given
For `COc1ccc(-c2nc(C(=O)OCc3ccccc3)co2)cc1`, the result was inactive.

With `O=C(OCc1ccccc1)c1coc(-c2ccccc2OCc2ccccc2)n1`, the result was inactive.

The subject of a further data set is Proteus vulgaris. The experiment in a line: Antibacterial activity against Proteus vulgaris OX 19. The class given is functional, organism-based.
Conditions: not given
Turning to `COc1ccc(-c2nc(C(=O)OCc3ccccc3)co2)cc1`, the outcome was inactive.

On to `O=C(OCc1ccccc1)c1coc(-c2ccccc2OCc2ccccc2)n1`, for which the result was inactive.

The subject of another data set is Mycobacterium avium. The experiment in a line: Antimycobacterial activity against Mycobacterium avium MAC 108.
Conditions: not given
The class given is functional, organism-based.
For the molecule `COc1ccc(-c2nc(C(=O)OCc3ccccc3)co2)cc1`, the result was inactive.

For `O=C(OCc1ccccc1)c1coc(-c2ccccc2OCc2ccccc2)n1`, the result was inactive.

The next data set deals with Mycobacterium tuberculosis. Briefly: Antimycobacterial activity against Mycobacterium tuberculosis Erdman infected in BALB/c mouse assessed as reduction of bacterial load at 200 mg/kg, po qd for 5 days per week administered 60 days after infection measured after 85 days post infection.
Conditions: not given
On the set-up: dose 200 mg/kg. The class given is functional, organism-based.
As to `Cc1oc(-c2ccccc2)nc1C(=O)OCc1ccccc1`, the result was inactive.

In the case of `CCOc1ccc(-c2nc(C(=O)OCc3ccccc3)co2)cc1`, the outcome was inactive.

As to `O=C(OCc1ccccc1)c1coc(-c2cncc(Br)c2)n1`, the result was inactive.

For `COc1ccc(-c2nc(C(=O)OCc3ccccc3)co2)cc1`, the result was inactive.

Turning to `O=C(OCc1ccccc1)c1coc(-c2ccccc2OCc2ccccc2)n1`, the outcome was inactive.

A further data set has as its system Mycobacterium avium. The experiment in a line: Antimycobacterial activity against Mycobacterium avium MAC 101. The format is functional, organism-based.
Conditions: not given
For `COc1ccc(-c2nc(C(=O)OCc3ccccc3)co2)cc1`, the result was inactive.

For `O=C(OCc1ccccc1)c1coc(-c2ccccc2OCc2ccccc2)n1`, the result was inactive.

In a further data set the test system is Mycolicibacterium vaccae. Briefly: Antimycobacterial activity against Mycobacterium vaccae 10670 by agar diffusion assay. The format is functional, organism-based.
Conditions: not given
(In general: In agar diffusion tests the substance spreads into inoculated agar from a disc or well.)
In the case of `COc1ccc(-c2nc(C(=O)OCc3ccccc3)co2)cc1`, the outcome was Active.

On to `O=C(OCc1ccccc1)c1coc(-c2ccccc2OCc2ccccc2)n1`, for which the result was Active.

For the next data set, the system named is Mycolicibacterium smegmatis. Briefly: Antimycobacterial activity against Mycobacterium smegmatis SG 987. The format is functional, organism-based.
Conditions: not given
For `COc1ccc(-c2nc(C(=O)OCc3ccccc3)co2)cc1`, the outcome was inactive.

In the case of `O=C(OCc1ccccc1)c1coc(-c2ccccc2OCc2ccccc2)n1`, the outcome was inactive.

Another data set has as its system Mycolicibacterium fortuitum. Briefly: Antimycobacterial activity against Mycobacterium fortuitum B. The class given is functional, organism-based.
Conditions: not given
With `COc1ccc(-c2nc(C(=O)OCc3ccccc3)co2)cc1`, the outcome was inactive.

Take `O=C(OCc1ccccc1)c1coc(-c2ccccc2OCc2ccccc2)n1`: the outcome was inactive.

These data come from ChEMBL document CHEMBL1157845, “Structure-activity relationship of new anti-tuberculosis agents derived from oxazoline and oxazole benzyl esters” (Eur J Med Chem, 2010).
